The compounds below were run against T1, purified human HDAC6 (Homo sapiens, UniProt Q9UBN7) (assay: HDAC6 enzyme assay). Conditions: bin: less than 100 nM.
T1 construct: purchased BPS Bioscience 5006
T1 sequence (Q9UBN7 1-1215): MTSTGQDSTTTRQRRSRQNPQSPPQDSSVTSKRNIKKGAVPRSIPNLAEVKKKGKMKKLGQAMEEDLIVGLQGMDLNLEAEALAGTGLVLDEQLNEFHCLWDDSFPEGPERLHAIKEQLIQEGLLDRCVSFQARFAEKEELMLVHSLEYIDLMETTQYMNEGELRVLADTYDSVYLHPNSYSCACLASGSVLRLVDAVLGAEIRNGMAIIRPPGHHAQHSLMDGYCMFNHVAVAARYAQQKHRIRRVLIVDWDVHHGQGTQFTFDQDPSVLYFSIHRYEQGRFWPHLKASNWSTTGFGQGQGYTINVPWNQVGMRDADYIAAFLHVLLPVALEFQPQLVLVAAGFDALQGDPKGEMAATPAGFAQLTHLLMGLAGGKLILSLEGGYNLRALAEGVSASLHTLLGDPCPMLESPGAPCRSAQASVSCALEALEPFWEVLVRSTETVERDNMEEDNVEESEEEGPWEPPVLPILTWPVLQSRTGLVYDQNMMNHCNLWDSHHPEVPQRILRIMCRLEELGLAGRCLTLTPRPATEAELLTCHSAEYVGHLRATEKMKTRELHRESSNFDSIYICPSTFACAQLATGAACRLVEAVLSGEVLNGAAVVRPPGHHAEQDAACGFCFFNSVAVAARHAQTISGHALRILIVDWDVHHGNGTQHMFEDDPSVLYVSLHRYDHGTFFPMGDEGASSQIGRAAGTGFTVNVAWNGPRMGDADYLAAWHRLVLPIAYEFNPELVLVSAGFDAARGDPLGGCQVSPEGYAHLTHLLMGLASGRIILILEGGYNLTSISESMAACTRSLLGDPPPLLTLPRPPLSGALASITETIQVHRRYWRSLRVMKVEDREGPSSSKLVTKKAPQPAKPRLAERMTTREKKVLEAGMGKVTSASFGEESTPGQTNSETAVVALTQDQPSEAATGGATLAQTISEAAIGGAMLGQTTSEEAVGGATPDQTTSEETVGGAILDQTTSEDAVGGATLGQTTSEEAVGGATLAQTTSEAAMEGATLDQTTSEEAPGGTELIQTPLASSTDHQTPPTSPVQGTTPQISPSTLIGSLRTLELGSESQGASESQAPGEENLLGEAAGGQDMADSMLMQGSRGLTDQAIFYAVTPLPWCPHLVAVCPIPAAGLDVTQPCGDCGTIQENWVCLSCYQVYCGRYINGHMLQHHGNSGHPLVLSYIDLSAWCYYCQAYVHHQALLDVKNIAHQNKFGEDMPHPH
Assay type: biochemical
Description: To measure the inhibition of HDAC6 activity, purified human HDAC6 (BPS Bioscience; Cat. No. 5006) is incubated with substrate Ac-Arg-Gly-Lys(Ac)-AMC peptide (Bachem Biosciences; Cat. No. I-1925) for 1 hour at 30° C. in the presence of test compounds or vehicle DMSO control. The reaction is stopped with the HDAC inhibitor trichostatin A (Sigma; Cat. No. T8552) and the amount of Arg-Gly-Lys-AMC generated is quantitated by digestion with trypsin (Sigma; Cat. No. T1426) and subsequent measurement of the amount of AMC released using a fluorescent plate reader (Pherastar; BMG Technologies) set at Ex 340 nm and Em 460 nm. Concentration response curves are generated by calculating the fluorescence increase in test compound-treated samples relative to DMSO-treated controls, and enzyme inhibition (IC50) values are determined from those curves.

Row | Structure (SMILES) | IC50 [µM]
1 | Cn1c(C(=O)N2CCn3nc(C(=O)NO)cc3C2)cc2ccccc21 [Compound I-31, N-hydroxy-5-[(1-methyl-1H-indol-2-yl)carbonyl]-4,5,6,7-tetrahydropyrazolo[1,5-a]pyrazine-2-carboxamide] | < 0.1
2 | Cc1onc(-c2ccccc2)c1CN1CCn2cc(C(=O)NO)cc2C1=O [Compound I-197, N-hydroxy-2-[(5-methyl-3-phenylisoxazol-4-yl)methyl]-1-oxo-1,2,3,4-tetrahydropyrrolo[1,2-a]pyrazine-7-carboxamide] | < 0.1
3 | Cn1c(C(=O)N2CCn3cc(C(=O)NO)cc3C2)cc(Cl)c1Cl [Compound I-91, 2-[(4,5-dichloro-1-methyl-1H-pyrrol-2-yl)carbonyl]-N-hydroxy-1,2,3,4-tetrahydropyrrolo[1,2-a]pyrazine-7-carboxamide] | < 0.1
4 | Cn1c(C(=O)N2CCn3cc(C(=O)NO)cc3C2)ccc1S(N)(=O)=O [Compound I-47, 2-{[5-(aminosulfonyl)-1-methyl-1H-pyrrol-2-yl]carbonyl}-N-hydroxy-1,2,3,4-tetrahydropyrrolo[1,2-a]pyrazine-7-carboxamide] | < 0.1

Now from value to compound:

Row | IC50 [µM] | Structure (SMILES)
5 | < 0.1 | Cc1cc(C(=O)N2CCn3cc(C(=O)NO)cc3C2)c(C)n1Cc1cccs1 [Compound I-35, 2-{[2,5-dimethyl-1-(2-thienylmethyl)-1H-pyrrol-3-yl]carbonyl}-N-hydroxy-1,2,3,4-tetrahydropyrrolo[1,2-a]pyrazine-7-carboxamide]
6 | < 0.1 | O=C(NO)c1cc2n(c1)CCN(C(=O)c1c[nH]c3ccccc13)C2 [Compound I-75, N-hydroxy-2-(1H-indol-3-ylcarbonyl)-1,2,3,4-tetrahydropyrrolo[1,2-a]pyrazine-7-carboxamide]
7 | < 0.1 | Cn1cccc1C(=O)N1CCn2cc(C(=O)NO)cc2C1 [Compound I-32, N-hydroxy-2-[(1-methyl-1H-pyrrol-2-yl)carbonyl]-1,2,3,4-tetrahydropyrrolo[1,2-a]pyrazine-7-carboxamide]
8 | < 0.1 | O=C(NO)c1cc2n(c1)CCN(C(=O)c1csc3ccccc13)C2 [Compound I-10, 2-(1-benzothien-3-ylcarbonyl)-N-hydroxy-1,2,3,4-tetrahydropyrrolo[1,2-a]pyrazine-7-carboxamide]
9 | < 0.1 | Cc1ccc2[nH]c(C(=O)N3CCn4cc(C(=O)NO)cc4C3)cc2c1 [Compound I-22, N-hydroxy-2-[(5-methyl-1H-indol-2-yl)carbonyl]-1,2,3,4-tetrahydropyrrolo[1,2-a]pyrazine-7-carboxamide]
10 | < 0.1 | Cc1cc(C(=O)N2CCn3cc(C(=O)NO)cc3C2)c(C)[nH]1 [Compound I-94, 2-[(2,5-dimethyl-1H-pyrrol-3-yl)carbonyl]-N-hydroxy-1,2,3,4-tetrahydropyrrolo[1,2-a]pyrazine-7-carboxamide]
11 | < 0.1 | Cn1ccc2cc(C(=O)N3CCn4cc(C(=O)NO)cc4C3)ccc21 [Compound I-89, N-hydroxy-2-[(1-methyl-1H-indol-5-yl)carbonyl]-1,2,3,4-tetrahydropyrrolo[1,2-a]pyrazine-7-carboxamide]

Same assay, conditions: bins: greater than 1 μM and less than 10 μM; greater than 10 μM

Row | Structure (SMILES) | IC50 [µM]
12 | O=C(NO)c1cc2n(n1)CCCN(C(=O)c1cc3ccccc3s1)C2 [Compound I-98, 5-(1-benzothien-2-ylcarbonyl)-N-hydroxy-5,6,7,8-tetrahydro-4H-pyrazolo[1,5-a][1,4]diazepine-2-carboxamide] | 1 to 10
13 | O=C(NO)c1cc2n(c1)CCCN(C(=O)C1(c3ccc(Cl)cc3)CC1)C2 [Compound I-34, 2-{[1-(4-chlorophenyl)cyclopropyl]carbonyl}-N-hydroxy-2,3,4,5-tetrahydro-1H-pyrrolo[1,2-a][1,4]diazepine-8-carboxamide] | 1 to 10
14 | O=C(NO)c1cn2c(n1)CN(C(=O)C13CC4CC(CC(C4)C1)C3)CC2 [Compound I-27, 7-[1-adamantylcarbonyl]-N-hydroxy-5,6,7,8-tetrahydroimidazo[1,2-a]pyrazine-2-carboxamide] | 1 to 10
15 | O=C(NO)c1cc2n(c1)CCCN(C(=O)c1c(Cl)cccc1Cl)C2 [Compound I-79, 2-(2,6-dichlorobenzoyl)-N-hydroxy-2,3,4,5-tetrahydro-1H-pyrrolo[1,2-a][1,4]diazepine-8-carboxamide] | 1 to 10
16 | CCOCCN1CCn2nc(C(=O)NO)cc2C1=O [Compound I-88, 5-(2-ethoxyethyl)-N-hydroxy-4-oxo-4,5,6,7-tetrahydropyrazolo[1,5-a]pyrazine-2-carboxamide] | 1 to 10
17 | O=C(NO)c1cc2n(n1)CCN(CC1CC1)C2=O [Compound I-83, 5-(cyclopropylmethyl)-N-hydroxy-4-oxo-4,5,6,7-tetrahydropyrazolo[1,5-a]pyrazine-2-carboxamide] | 1 to 10
18 | O=C(NO)c1cc2n(n1)CCN(C(=O)C1(C(F)(F)F)CC1)C2 [Compound I-8, N-hydroxy-5-{[1-(trifluoromethyl)cyclopropyl]carbonyl}-4,5,6,7-tetrahydropyrazolo[1,5-a]pyrazine-2-carboxamide] | 1 to 10
19 | CC(C)N1CCn2nc(C(=O)NO)cc2C1=O [Compound I-46, N-hydroxy-5-isopropyl-4-oxo-4,5,6,7-tetrahydropyrazolo[1,5-a]pyrazine-2-carboxamide] | 1 to 10
20 | CC(C)CCN1CCn2nc(C(=O)NO)cc2C1=O [Compound I-77, N-hydroxy-5-(3-methylbutyl)-4-oxo-4,5,6,7-tetrahydropyrazolo[1,5-a]pyrazine-2-carboxamide] | 1 to 10
21 | Cn1nc(C(C)(C)C)cc1C(=O)N1CCCn2cc(C(=O)NO)cc2C1 [Compound I-63, 2-[(3-tert-butyl-1-methyl-1H-pyrazol-5-yl)carbonyl]-N-hydroxy-2,3,4,5-tetrahydro-1H-pyrrolo[1,2-a][1,4]diazepine-8-carboxamide] | 1 to 10
22 | CC1(C(=O)N2CCCn3cc(C(=O)NO)cc3C2)CCCCC1 [Compound I-74, N-hydroxy-2-[(1-methylcyclohexyl)carbonyl]-2,3,4,5-tetrahydro-1H-pyrrolo[1,2-a][1,4]diazepine-8-carboxamide] | 1 to 10
23 | COc1ccc(C(=O)N2CCCn3nc(C(=O)NO)cc3C2)cc1 [Compound I-53, N-hydroxy-5-(4-methoxybenzoyl)-5,6,7,8-tetrahydro-4H-pyrazolo[1,5-a][1,4]diazepine-2-carboxamide] | > 10
24 | CC(C)(C(=O)N1CCn2nc(C(=O)NO)cc2C1)c1ccc(Cl)cc1 [Compound I-37, 5-[2-(4-chlorophenyl)-2-methylpropanoyl]-N-hydroxy-4,5,6,7-tetrahydropyrazolo[1,5-a]pyrazine-2-carboxamide] | 1 to 10
25 | CC(C)(C)c1ccc(C(=O)N2CCCn3cc(C(=O)NO)cc3C2)cc1 [Compound I-18, 2-(4-tert-butylbenzoyl)-N-hydroxy-2,3,4,5-tetrahydro-1H-pyrrolo[1,2-a][1,4]diazepine-8-carboxamide] | 1 to 10

More lines, now with the values ahead:

Row | IC50 [µM] | Structure (SMILES)
26 | > 10 | CS(=O)(=O)c1cccc(C(=O)N2CCn3cc(C(=O)NO)cc3C2)c1 [Compound I-54, N-hydroxy-2-[3-(methylsulfonyl)benzoyl]-1,2,3,4-tetrahydropyrrolo[1,2-a]pyrazine-7-carboxamide]
27 | > 10 | Cc1oc(-c2ccccc2)nc1CC(=O)N1CCn2cc(C(=O)NO)cc2C1 [Compound I-82, N-hydroxy-2-[(5-methyl-2-phenyl-1,3-oxazol-4-yl)acetyl]-1,2,3,4-tetrahydropyrrolo[1,2-a]pyrazine-7-carboxamide]
